ChEMBL document CHEMBL1150174, “Lyngbyaloside B, a new glycoside macrolide from a Palauan marine cyanobacterium, Lyngbya sp” (J Nat Prod, 2002)

Assays:
LoVo = assay: Cytotoxicity against human LoVo cells; format: functional, cell-based
KB = assay: Cytotoxicity against human KB cells; format: functional, cell-based

SMILES: CO[C@@H]1[C@@H](OC)[C@@H](O)[C@H](O[C@H]2C[C@@]3(O)CC(=O)O[C@](C)(CC/C=C/C=C/Br)C[C@@H](O)[C@H](C)CC[C@H](O3)[C@@H]2C)O[C@H]1C [LYNGBYALOSIDE B]
- IC50 (LoVo): 15 µM
- IC50 (KB): 4.3 µM
